Columns and labels:
[1] = Toxicology study of AVR-48, IV dose escalation and repeat dose phases; assay type: in vivo, Sprague Dawley rats
Protocol: For the PK study of AVR-48 in rats, a formulation consisting of 10% DMSO, 20% tetraglycol, 20% PEG 400, and 50% sterile water was developed. Each preparation was made on the same day of dose administration. The components of the control/vehicle item formulation were added sequentially. Briefly, the appropriate volume of DMSO (10% of the final volume) was measured into a container followed by gradual addition of PEG 400 (20% of the final volume) and sterile water (50% of the final volume) to make up the volume and mixed thoroughly till completely dissolved. The final solution was filtered through a 0.22 µm membrane filter (Millipore Millex® GP PES, St. Louis, MO, USA) into a sterile vial.
The toxicology study of AVR-48 was performed with both 8–10 week old male and female Sprague Dawley rats, in two phases following standard FDA guidance [M3(R2)R]. AVR-48 was injected IV at a volume of 5 mL/kg of body weight after reconstituting in 10% DMSO, 20% tetraglycol, and 20% PEG 400 in sterile water. In the dose escalation phase, 75 to 100 mg/kg per day was administered as two separate doses approximately 6–7 h apart by IV slow bolus injection at a volume of 5 mL/kg of body weight. Three animals of each sex were dosed at each dose level. During the repeat dose phase, daily doses of 0, 40, and 80 mg/kg/day were administered as two divided doses delivered by slow bolus injection at a volume of 5 mL/kg of body weight approximately 6–7 h apart. Study animals (n = 5/sex/dose) were treated for three days with a total of six doses for AVR-48. Twelve to eighteen hours after the last dose was administered, animals were euthanized and blood collected for analysis of clinical chemistry and other hematological parameters. Detailed necropsy examinations were performed on each animal, and tissues were collected and fixed with standard fixatives for histological analysis and interpretation.

CLP-induced sepsis mice = assay: CLP-induced sepsis survival study; assay type: in vivo, C57BL6/J mice; conditions: AVR-48 10 mg/kg IV at 16 h and 24 h after CLP, imipenem 5 mg/kg SC at 30 min; 10 days; CLP alone 100% mortality within 72 h
Protocol: For CLP-induced lung injury, CLP was performed as previously described by us. As antibiotics are the standard of care in sepsis patients, one dose of imipenem was given SC at 5 mg/kg 30 min after the procedure, followed by two doses of AVR-48 (10 mg/kg, IV) at 16 h and 24 h following the surgery, and sacrificed after 72 h. The sham mice (controls) had the abdominal cavity opened, the cecum was not perforated, and the peritoneum was stitched back.
For the survival study of CLP-induced ALI, mice were injected with 2 doses of AVR-48 (IV) followed by 1 dose of imipenem (SC) as described in the CLP methodology, and allowed to survive for 10 days. Sterility was maintained throughout the procedure by operating the animals under a laminar hood. Following the procedure, the animals were returned back to the animal room for subsequent monitoring and follow up. The body temperature was recorded every 24h and feeding and social behavior was also observed. They were fed with semisolid food for 48h before resuming their regular chow diet. All mice were sacrificed after 10 days. (N=3 for sham and 5 for the rest of the groups). A CLP + imipenem group was not done in this study, as we have published this group […]
imipenem, better than CLP + imipenem alone. Histopathology of the vital organs was performed and scored as previously published (37, 38) and noted in the methods section of this paper.

hPBMC = system: hPBMC; set-up: method as in earlier work; conditions: cited from earlier work

CC(=O)N[C@H]1[C@H](Oc2ccc([N+](=O)[O-])cc2)O[C@H](CO)[C@@H](O)[C@@H]1O [AVR-48, N-((2S,3R,4R,5S,6R)-4,5-dihydroxy-6-(hydroxymethyl)-2-(4-nitrophenoxy)tetrahydro-2H-pyran-3-yl) acetamide]
tolerability, repeat administration ([1]; 40 and 80 mg/kg/day as two daily doses of 20 and 40 mg/kg for three consecutive days, IV): well tolerated with no adverse clinical signs | hematology and clinical chemistry parameters ([1]; IV for three consecutive days, up to 80 mg/kg/day): no changes in any of the hematology or clinical chemistry parameters | MTD at 3 days ([1]; both sexes, Sprague Dawley, rat, in vivo, IV, two daily doses for three consecutive days, male and female rats): 80 mg/kg/day | NOAEL at 3 days ([1]; both sexes, Sprague Dawley, rat, in vivo, IV, two daily doses for three consecutive days, male and female rats, read-out: no observable adverse effect level (NOAEL)): 80 mg/kg/day | adverse signs ([1]; dose escalation, 75 mg/kg/day IV): No adverse signs were observed | mortality ([1]; dose escalation, 100 mg/kg total daily dose IV): A single animal that received a total daily dose of 100 mg/kg died | clinical signs ([1]; dose escalation, 100 mg/kg total daily dose, two IV bolus 6-7 h apart): clinical signs of hypoactivity, respiratory changes, changes in posture, and loss of motor coordination were observed | therapeutic window over the efficacious dose ([1]; rat MTD/NOAEL vs 10 mg/kg efficacious dose in mouse): ~8 fold | systemic gross observations at necropsy ([1]; repeat dose IV): no evidence of any AVR-48 related systemic gross observations at necropsy | survival (CLP-induced sepsis mice): 80% | TNF-α (hPBMC; in vitro hPBMC model): decreases TNF-α | IL-10 expression (hPBMC; with or without LPS): increased IL-10 expression

Source: article PMC7961996, “Small Immunomodulatory Molecules as Potential Therapeutics in Experimental Murine Models of Acute Lung Injury (ALI)/Acute Respiratory Distress Syndrome (ARDS)” (International Journal of Molecular Sciences, 2021)
